Oligonucleotides are written 5' to 3', each unit as a sugar letter and its base; * is a phosphorothioate linkage, no mark a phosphodiester; rarer units and linkages stand in square brackets, end groups in braces. Plain capitals give the bases only. d = 2'-deoxy (DNA)
Tests used:
Format in all cases: cell-based
human purified pDCs = assay: IFN-α secretion from purified human pDCs by ELISA
Text: By contrast, ODN2006 induced IFN-α secretion from purified and matured pDCs, and ODN150 and ODN7040 induced IFN-α secretion from matured pDCs.

human pDCs = assay: Surface ICOS-L and PD-L1 expression in CCR6+CD123+ human pDCs by FACS; conditions: human pDCs, 24 hrs, FIG. 2B
Method: To evaluate surface ICOS-L, PD-L1 expression in the CCR6+CD123+ pDC cell subsets, PBMCs were incubated on ice in the presence of Fc-Block (BD Pharmingen) for 20 minutes, washed, and incubated with antibodies specific for surface molecules or isotype-matched control mAbs. APC-labeled anti-human ICOS-L mAb were purchased from BioLegend, PECY-7-labeled anti-human CCR6 mAb, FITC-labeled anti-human PD-L1 mAb and PerCP-Cy5.5 labeled anti-human CD123 mAb were purchased from BD Biosciences. The stained cells were then subjected to FACS (FACSCanto, BD Biosciences) using FACSDiva software. FACS analysis was performed using FlowJo software. Single, viable cells in the CCR6+CD123+ pDC gates were analyzed. The flow cytometric results are expressed as the percentage and MFI of ICOSL-, or PD-L1-expressing cells in each gate.
pDCs were isolated and ICOS-L expression was analyzed as described in Example 2.

human PBMCs = assay: Cytokine production by human PBMCs treated with ODNs, MagPix Multi-Plex; design: key to IL-6, IL-12: (↑) indicates a weak but detectable activity; (↑↑) and (↑↑↑) indicate different levels of moderate activities; (↑↑) and (↑↑↑) indicate different levels of moderate activities; (↑↑↑↑) indicates a strong activity; (−) indicates no detectable activity; conditions: for IFN-γ / IL-1β / IL-6 / IL-10 / IL-12p40 / IP10 / TNF-α: human PBMC, 24 hrs
Method: PBMC from 3 donors were isolated from Buffy Coat (Blood Center of NY). The cells were washed with PBS and re-suspended in RPMI-1640 Media with 5% Human AB Serum, 1% Pen/Strep and 2 mM L-glutamine. The cells were then plated in 96-well plates at 250,000 cells/well. […] After 24 hrs, the supernatant was harvested and tested for cytokine production using MagPix Multi-Plex Technology. The following cytokines were tested: IL-6, IL-10, IL-12p40, IFN-α, IFN-γ, IP-10, IL-1β and TNF-α.

[1] = PBMC, relative strength, Table 6

In the case of “ODN150: 5′-G*G*A*ACAGTTCGTCCAT*G*G*C-3′, PO except * = PS; antisense to p65 of NF-kB mRNA; tested clinically for ulcerative colitis (DNA dG*dG*dA*dAdCdAdGdTdTdCdGdTdCdCdAdT*dG*dG*dC)”, the “IFN-α secretion from pDCs matured by IL-3 treatment” value (human purified pDCs; 3 μM, 48 hours, ELISA, FIG. 18) is reported as “induced”, the IFN-α (human purified pDCs; pDC, relative strength, Table 6) is reported as “↑ ↑” and the PD-L1 protein induction (human pDCs) is reported as “can induce”. The “IL-6, IL-12” value (human PBMCs; [1]) was “↑”, the “TNFα, IFNγ” value (human PBMCs; [1]) was “—/↑” and the “IFNα secretion from PBMCs” value (human PBMCs; any tested concentration between 0.01 μM and 10 μM, FIG. 25) was “not found to induce”. The IFN-γ (human PBMCs; high-dose ODN 10 μM) was 0.2 pg/mL, the IL-1β (human PBMCs; high-dose ODN 10 μM) was 0.6 pg/mL and the IL-6 (human PBMCs; high-dose ODN 10 μM) was 11.8 fold change. For the same substance, the IL-10 (human PBMCs; high-dose ODN 10 μM) was 1.6 fold change, the IL-12p40 (human PBMCs; high-dose ODN 10 μM) was 0 pg/mL and the IP10 (human PBMCs; high-dose ODN 10 μM) was 8.1 fold change. For the same substance, the TNF-α (human PBMCs; high-dose ODN 10 μM) was 2 fold change, the IFN-γ (human PBMCs; low-dose ODN 0.1 μM) was 0.2 pg/mL and the IL-1β (human PBMCs; low-dose ODN 0.1 μM) was 0.2 pg/mL. It also gave an IL-6 (human PBMCs; low-dose ODN 0.1 μM) of 1.2 fold change, an IL-10 (human PBMCs; low-dose ODN 0.1 μM) of 0.9 fold change and an IL-12p40 (human PBMCs; low-dose ODN 0.1 μM) of 0 pg/mL. For the same substance, the IP10 (human PBMCs; low-dose ODN 0.1 μM) was 1.5 fold change and the TNF-α (human PBMCs; low-dose ODN 0.1 μM) was 1.2 fold change.

— patent US20180289692A1, “TLR MODULATORS AND METHODS OF USE” (CELGENE CORPORATION, priority 2015, published 2018)
